# According to patent US11202791B2, “Compositions containing tannic acids and uses thereof” (SyneuRx International (Taiwan) Corp., priority 2016, dated 2021):
# Columns and labels:
# Format in all cases: in vivo, C57BL/6J male mice
# [1] = system: MK-801 treated mice; test: Sucrose preference (anhedonia) in MK-801 treated mice; details: MK-801 alone 0.2 mg/kg i.p.
# Method: (§1) Each mouse in Groups 2-5 received an acute administration of MK-801 (Sigma-Aldrich, USA) dissolved in normal saline, 0.1 mg/kg for open field and Barnes maze tasks, and 0.2 mg/kg for prepulse inhibition and sucrose preference tasks by i.p. injection) 20 minutes prior to the behavioral tests. Each mouse in Groups 3-6 received an acute oral administration of tannic acids (Merck Millipore, Germany; dissolved in PBS, 10, 30, or 100 mg/kg, p.o.) 20 minutes prior to the MK-801 administration.
# Sucrose preference test has been commonly examined in mouse models of several mental illnesses, including, but not limited to, depression, major depression disorder, anhedonia, negative symptoms of schizophrenia, chronic mild and unpredictable stress (see Anderson et al., 2006; Carvalho et al., 2013; Briones et al., 2011; Der-Avakian and Markou, 2012; Tye et al., 2013; Edwards and Koob, 2012; Brigman et al., 2010; Koo and Duman, 2007; Nestler and Hyman, 2010; Overstreet, 2012; Papp et al., 1991; Santiago et al., 2010; Skalisz et al., 2002; Szczypka et al., 2001; Taylor et al., 2010; Vardigan et al., 2010; Willner et al., 1987; You et al., 2011).
# [2] = system: MK-801 treated mice; test: Prepulse inhibition in MK-801-treated mice
# [3] = system: MK-801 treated mice; test: Open field, MK-801-induced hyper-locomotion
# Method: Each mouse in Groups 2-6 received an acute administration of MK-801 (Sigma-Aldrich, USA) dissolved in normal saline, 0.1 mg/kg, i.p.) 20 minutes prior to the behavioral tests. Each mouse in Groups 3-6 received an acute administration of tannic acids (Sigma-Aldrich, USA; dissolved in PBS, 10, 15, 20 or 30 mg/kg, i.p.) 20 minutes prior to the MK-801 administration.
# as §1
# Each mouse in Groups 2-5 received an acute administration of 0.2 mg/kg MK-801 (Sigma-Aldrich, USA) dissolved in normal saline by i.p. injection 20 minutes prior to the locomotion activity test. […]
# The open field task is a common measurement of novelty induced exploratory behavior and general activity in both mice and rats. […] Their spontaneous locomotor activities were measured for 30 minutes using the SMART video tracking system (Panlab, Harvard Apparatus). The travel distance of each mouse was measured as an index of locomotion activity.
structure (smiles),measurement,setting,value
"C[C@]12N[C@H](Cc3ccccc31)c1ccccc12 [MK-801, dizocilpine]",preference toward the sucrose solution (2%) vs control group,[1],did not show the preference toward the sucrose solution
same,prepulse inhibition vs control group,[2]; MK-801 alone 0.2 mg/kg i.p. (Example 4),robust prepulse inhibition deficits
same,prepulse inhibition vs control group,"[2]; MK-801 alone 0.3 mg/kg i.p., all prepulse intensities (Example 9)",robust prepulse inhibition deficits
same,locomotion activity vs control group,[3]; MK-801 alone 0.1 mg/kg i.p. (Example 3),hyper-locomotion activity
same,locomotion activity vs control group,[3]; MK-801 alone 0.2 mg/kg i.p. (Example 9),hyper-locomotion activity
